Test results published in US20150368617A1, “METHOD FOR FORMING ENDOTHELIAL CELLS” (Korea Advanced Institute of Science and Technology (KAIST), priority 2012, published 2015).

Assays:
αMHC GFP+CMs = assay: Sorted αMHC-GFP+ CMs in feeder-free condition; assay type: cell-based, mouse; settings: Y27632 10 μM
Procedure: Analysis and sorting for CMs were performed at day 10.5. We harvested differentiated Flk1+ MPCs on OP9 cells with 0.25% trypsin-EDTA or dissociation buffer (Invitrogen). Cardiac troponin-T (cTnT)+ and ┌ smooth muscle actin (SMA)+ cells were analyzed after permeabilization using Cytofix/Cytoperm solution (BD Biosciences) for 15 min. After permeabilization, the cells were incubated for 30 min with anti-mouse cTnT (NeoMarkers) monoclonal antibody. After washing in 10% Perm/Wash buffer (BD Biosciences), the cells were incubated for 10 min with Alexa Fluor® 647 anti-mouse IgG (Invitrogen). After washing in 10% Perm/Wash buffer (BD Biosciences), the cells were incubated for 30 min with Cy3-conjugated anti-┌ SMA (clone 1A4, Sigma). We sorted out CMs using ┌ MHC GFP. Sorted Flk1+ MPCs on OP9 cells were harvested with 0.25% trypsin-EDTA or dissociation buffer (Invitrogen) and cells were washed using phosphate buffered saline/10% FBS twice. Dead cells were excluded using 7-aminoactinomycin D (Invitrogen). Then, we sorted out ┌ MHC GFP+CMs and plated on to 0.1% gelatin coated dish in the differentiation medium. The medium was changed every 2 days. Analyses and sorting were performed by FACS Aria II (Beckton Dickinson). Data were analyzed using FlowJo Version 7.5.4 software (TreeStar). […]

CD144+ ECs = assay: FACS phenotypic analysis of EC and MC markers at day 6.5; assay type: cell-based, mouse
Procedure: FIGS. 12A to 12B-6. ROCK suppression-induced ECs express EC-specific genes. (FIG. 12A) Diagram of cell preparations for phenotype analyses of EC and MC differentiation. Flk1+ MPCs were incubated with only VEGF-A (50 ng/ml) (Control) and VEGF-A (50 ng/ml) plus Y27632 (10┌ M) (Y72632) for 2 days. (FIG. 12B-1 to FIG. 12B-6) Representative FACS analysis for phenotypic markers in CD144+ cells; pan-endothelial, mural, and arterial-, venous- and lymphatic EC.
Cells were harvested with 0.25% trypsin-EDTA (Invitrogen) or dissociation buffer (Invitrogen) and resuspended in HBSS/2% FBS at 1×10^6 cells per 100┌ l. The cells were incubated for 20 min with the following antibodies: biotin-conjugated anti-mouse Flk1 (clone AVAS12a1, eBioscience), allophycocyanin (APC)-conjugated anti-mouse CD140a (clone APA5, eBioscience), phycoerythrin(PE)-conjugated anti-mouse CD31 (clone 390, eBioscience), Alexa Fluor® 647-conjugated anti-mouse CD144 (clone BV13, eBioscience), PE-conjugated anti-mouse D114 (clone HMD4-1, Biolegend), PE-conjugated anti-mouse Tie2 (clone TEK4, eBioscience), PE-conjugated anti-mouse Endoglin (clone MJ7/18, Biolegend), anti-mouse ICAM2 (clone 3C4, Biolegend), APC-conjugated anti-mouse CD140b (clone APBS, eBioscience), PE-conjugated anti-mouse LYVE1 (clone ALY7, eBioscience), anti-mouse VEGFR3 (goat polyclonal, R&D systems), anti-mouse EphB4 (clone VEB4-7E4, Hycult biotech), and PE-conjugated anti-mouse Notch1 (clone HMN1-12, Biolegend). After washing in HBSS/2% FBS twice, the cells were incubated with the following secondary antibodies: PE-conjugated streptavidin (eBioscience), PE-conjugated anti-rat IgG2a (eBioscience), and FITC-conjugated anti-goat IgG (Invitrogen). Dead cells were excluded by 7-aminoactinomycin D (7-AAD, Invitrogen).

Structure (SMILES): C[C@@H](N)[C@H]1CC[C@H](C(=O)Nc2ccncc2)CC1 [Y27632]
- self-beating CMs compared to control (αMHC GFP+CMs; day 12.5): much more self-beating CMs
- area of self-beating CMs compared control (αMHC GFP+CMs; day 14.5, confluent state): ~2.8 fold
- population of CD144+ ECs expressing pan-endothelial cell surface markers (Flk1, Tie2, endoglin and ICAM2) compared to control (CD144+ ECs): ~2.0 fold
- population of CD144+ ECs that express D114 (arterial) (CD144+ ECs): 4.6 fold
- population of CD144+ ECs that express EphB4 (venous) (CD144+ ECs): 2.4 fold
- population of CD144+ ECs that express LYVE-1 (lymphatic) (CD144+ ECs): 2.1 fold
- population of CD144+ ECs that express Notch1 (arterial) (CD144+ ECs): 2.4 fold
- population of CD144+ ECs that express VEGFR3 (lymphatic) (CD144+ ECs): 3.8 fold
- populations of cells expressing αSMA and CD140b (CD144+ ECs): markedly reduced
